This is an account of results in EP1935986B1, “Luminogenic and fluorogenic compounds and methods to detect molecules or conditions” (priority 2005, dated 2006).

T1 sequence (P08659 whole entry): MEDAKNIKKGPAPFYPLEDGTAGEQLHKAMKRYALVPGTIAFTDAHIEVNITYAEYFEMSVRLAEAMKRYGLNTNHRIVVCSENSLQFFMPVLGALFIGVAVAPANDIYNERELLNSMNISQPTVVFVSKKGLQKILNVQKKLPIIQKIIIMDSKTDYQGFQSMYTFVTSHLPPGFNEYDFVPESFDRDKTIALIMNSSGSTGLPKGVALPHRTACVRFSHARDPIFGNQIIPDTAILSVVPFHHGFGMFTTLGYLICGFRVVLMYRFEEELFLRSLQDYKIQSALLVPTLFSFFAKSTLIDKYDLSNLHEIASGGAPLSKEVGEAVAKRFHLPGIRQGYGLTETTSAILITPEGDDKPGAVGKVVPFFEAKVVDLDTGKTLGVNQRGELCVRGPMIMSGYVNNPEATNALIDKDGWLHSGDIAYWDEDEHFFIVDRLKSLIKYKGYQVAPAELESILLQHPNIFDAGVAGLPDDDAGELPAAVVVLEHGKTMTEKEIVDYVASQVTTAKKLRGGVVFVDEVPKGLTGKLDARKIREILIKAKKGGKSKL

In one experiment the test system is thermostable luciferase (Luc 146-1H2). The experiment in a line: Thermostable luciferase reaction with luciferin derivatives: light readings. In kind it is biochemical. Particulars: 100 µM each; result in words. The protocol: This stock was used to produce enzyme stock solution having of 200 µg/ml enzyme solution in 1 mg/ml BSA, 200 mM HEPES buffer, pH 8.0, 20 mM MgCl2.
Solutions were made using a 1 M DTT solution, pH adjusted to 8.0, a 20 mM Coenzyme A solution in water (both described in examples above), a 100 mM ATP solution and water to create the following solutions: Sol'A, 100 µM ATP; Sol'B, 100 µM ATP, 4 mM Coenzyme A; Sol'n C, 100 µM ATP, 400 mM DTT, and; Sol'n D, 100 µM ATP, 4 mM Coenzyme A and 400 mM DTT.
The following reactions were prepared (Table 47) Table 47
After assembly, the reactions were initiated by addition of 25 µl of the thermostable luciferase stock solution above and mixing the tube contents. A 50 µl sample was immediately removed and placed in a luminometer tube and the light read and the tube then replaced in a tube rack at room temperature. While the light reading was being taken, a 5 µl sample of the remaining reaction (which was kept at room temperature) was diluted into 495 µl of 50 mM BisTris, pH 6.5, 1 mg/ml BSA, 1 mM EDTA prechilled to 4°C and the tube mixed and placed on ice. The light produced by the samples in the luminometer tubes were re-read at 20, 40, 60, 90 and 120 minutes post enzyme addition. Additional 5 µl samples were taken and diluted as above at 60 and 120 minutes post enzyme addition. Once all these readings and samples were taken, 50 µl of the diluted samples was mixed with 50 µl of Steady Glo in luminometer tubes, the tubes incubated 10 minutes on ice then the light produced was read on a Turner TD 20/20 luminometer.
Consider `CN(C)c1ccc2nc(C3=NC(C(=O)O)CS3)sc2c1` (centres unmarked) [dimethyl amino luciferin], for which the “brightness of luciferase reaction relative to amino luciferin” value was “about half as bright”.

The next experiment addresses T1, QuantiLum Luciferase (Photinus pyralis, UniProt P08659).
T1 construct: purchased Promega Corporation E170
The experiment in a line: Scaffolds: light emission of luciferin derivatives with QuantiLum luciferase alone, + Co A, + DTT, + Co A and DTT. In kind it is biochemical, firefly. Particulars: Derivative Conc. 1.07; Alone. The method, then:
The DTT, Coenzyme A, and QuantiLum stock solutions are the same as those described herein.
This solution was diluted 1:1 with water to produce an enzyme solution labeled "No addition." This solution was diluted 1:1 with 400 mM DTT, pH 8.0 to produce a solution labeled +DTT. This solution was diluted 1:1 with 4 mM Coenzyme A to produce a solution labeled + Co A. Finally, this solution was diluted 1:1 with a solution having both 4 mM Coenzyme A and 400 mM DTT to produce a solution labeled +Co A & DTT.
50 µl samples of these solutions were placed in the wells of luminometer microtiter plates, row A to row G, respeutivly. Row H of the plates was given 50 µl of water.
Reactions in these plates were initiated by addition of 50 µl of solution containing QuantiLum luciferase using a 12 channel micropipette. The solutions added to the rows were: columns 1, 5, and 9 - no addition solution; columns 2, 6, and 10 - + Co A solution; columns 3, 7, and 11 + DTT solution, and; columns 4, 8, and 12 - + Co A and DTT solution. After addition of the enzyme solution to the first row on every plate, a timer was started. After addition of the enzyme solution to the last row on each plate, the plate was sealed and read on a Veritas luminometer.
With `O=C(O)[C@H]1CSC(c2nc3ccc(OCCO)cc3s2)=N1` [2hydroxyethoxyluciferin ether], the light emission values came out at 8807.

Still in this experiment, the particulars now being: Derivative Conc. 1.07; Co A.
For `O=C(O)[C@H]1CSC(c2nc3ccc(OCCO)cc3s2)=N1` [2hydroxyethoxyluciferin ether], the light emission values is recorded as 13847.

The same experiment, now with this note: Derivative Conc. 1.07; Co A + DTT.
`O=C(O)[C@H]1CSC(c2nc3ccc(OCCO)cc3s2)=N1` [2hydroxyethoxyluciferin ether]: the light emission values is reported as 22105.

Staying with this experiment, now noted: Derivative Conc. 1.07; DTT.
As to `O=C(O)[C@H]1CSC(c2nc3ccc(OCCO)cc3s2)=N1` [2hydroxyethoxyluciferin ether], the light emission values was determined as 24491.

Still in this experiment, the particulars now being: Derivative Conc. 3.13; Alone.
With `O=C(O)[C@H]1CSC(c2nc3ccc(OCCO)cc3s2)=N1` [2hydroxyethoxyluciferin ether], the light emission values was determined as 10769.

The same experiment, now with this note: Derivative Conc. 3.13; Co A.
As for `O=C(O)[C@H]1CSC(c2nc3ccc(OCCO)cc3s2)=N1` [2hydroxyethoxyluciferin ether], the light emission values is 14986.

Still in this experiment, the particulars now being: Derivative Conc. 3.13; Co A + DTT.
In the case of `O=C(O)[C@H]1CSC(c2nc3ccc(OCCO)cc3s2)=N1` [2hydroxyethoxyluciferin ether], the light emission values is recorded as 32555.

The same experiment, now with this note: Derivative Conc. 3.13; DTT.
In the case of `O=C(O)[C@H]1CSC(c2nc3ccc(OCCO)cc3s2)=N1` [2hydroxyethoxyluciferin ether], the light emission values came out at 36967.

Staying with this experiment, now noted: Derivative Conc. 6.25; Alone.
`O=C(O)[C@H]1CSC(c2nc3ccc(OCCO)cc3s2)=N1` [2hydroxyethoxyluciferin ether]: the light emission values is 14686.

Staying with this experiment, now noted: Derivative Conc. 6.25; Co A.
For `O=C(O)[C@H]1CSC(c2nc3ccc(OCCO)cc3s2)=N1` [2hydroxyethoxyluciferin ether], the light emission values amounted to 18532.

The experiment is the same for the next values; noted with them: Derivative Conc. 6.25; Co A + DTT.
`O=C(O)[C@H]1CSC(c2nc3ccc(OCCO)cc3s2)=N1` [2hydroxyethoxyluciferin ether]: the light emission values was 42815.

The experiment is the same for the next values; noted with them: Derivative Conc. 6.25; DTT.
On to `O=C(O)[C@H]1CSC(c2nc3ccc(OCCO)cc3s2)=N1` [2hydroxyethoxyluciferin ether], for which the light emission values worked out at 48458.

The experiment is the same for the next values; noted with them: Derivative Conc. 12.5; Alone.
Turning to `O=C(O)[C@H]1CSC(c2nc3ccc(OCCO)cc3s2)=N1` [2hydroxyethoxyluciferin ether], the light emission values came out at 19586.

Staying with this experiment, now noted: Derivative Conc. 12.5; Co A.
Consider `O=C(O)[C@H]1CSC(c2nc3ccc(OCCO)cc3s2)=N1` [2hydroxyethoxyluciferin ether], for which the light emission values is listed as 21636.

The same experiment, now with this note: Derivative Conc. 12.5; Co A + DTT.
Turning to `O=C(O)[C@H]1CSC(c2nc3ccc(OCCO)cc3s2)=N1` [2hydroxyethoxyluciferin ether], the light emission values is given as 54630.

The experiment is the same for the next values; noted with them: Derivative Conc. 12.5; DTT.
As for `O=C(O)[C@H]1CSC(c2nc3ccc(OCCO)cc3s2)=N1` [2hydroxyethoxyluciferin ether], the light emission values is on record as 61882.

Staying with this experiment, now noted: Derivative Conc. 25; Alone.
As for `O=C(O)[C@H]1CSC(c2nc3ccc(OCCO)cc3s2)=N1` [2hydroxyethoxyluciferin ether], the light emission values amounted to 27356.

The same experiment, now with this note: Derivative Conc. 25; Co A.
For the molecule `O=C(O)[C@H]1CSC(c2nc3ccc(OCCO)cc3s2)=N1` [2hydroxyethoxyluciferin ether], the light emission values was found to be 28679.

Staying with this experiment, now noted: Derivative Conc. 25; Co A + DTT.
`O=C(O)[C@H]1CSC(c2nc3ccc(OCCO)cc3s2)=N1` [2hydroxyethoxyluciferin ether]: the light emission values was 67303.

The experiment is the same for the next values; noted with them: Derivative Conc. 25; DTT.
In the case of `O=C(O)[C@H]1CSC(c2nc3ccc(OCCO)cc3s2)=N1` [2hydroxyethoxyluciferin ether], the light emission values was 76612.

The same experiment, now with this note: Derivative Conc. 50; Alone.
Turning to `O=C(O)[C@H]1CSC(c2nc3ccc(OCCO)cc3s2)=N1` [2hydroxyethoxyluciferin ether], the light emission values was 38444.

Staying with this experiment, now noted: Derivative Conc. 50; Co A.
Turning to `O=C(O)[C@H]1CSC(c2nc3ccc(OCCO)cc3s2)=N1` [2hydroxyethoxyluciferin ether], the light emission values is recorded as 39320.

The experiment is the same for the next values; noted with them: Derivative Conc. 50; Co A + DTT.
As to `O=C(O)[C@H]1CSC(c2nc3ccc(OCCO)cc3s2)=N1` [2hydroxyethoxyluciferin ether], the light emission values is 87170.

Still in this experiment, the particulars now being: Derivative Conc. 50; DTT.
In the case of `O=C(O)[C@H]1CSC(c2nc3ccc(OCCO)cc3s2)=N1` [2hydroxyethoxyluciferin ether], the light emission values stood at 98407.

Still in this experiment, the particulars now being: Derivative Conc. 100; Alone.
For `O=C(O)[C@H]1CSC(c2nc3ccc(OCCO)cc3s2)=N1` [2hydroxyethoxyluciferin ether], the light emission values was 53804.

Staying with this experiment, now noted: Derivative Conc. 100; Co A.
On to `O=C(O)[C@H]1CSC(c2nc3ccc(OCCO)cc3s2)=N1` [2hydroxyethoxyluciferin ether], for which the light emission values was 52640.

Still in this experiment, the particulars now being: Derivative Conc. 100; Co A + DTT.
For `O=C(O)[C@H]1CSC(c2nc3ccc(OCCO)cc3s2)=N1` [2hydroxyethoxyluciferin ether], the light emission values is on record as 94724.

Still in this experiment, the particulars now being: Derivative Conc. 100; DTT.
On to `O=C(O)[C@H]1CSC(c2nc3ccc(OCCO)cc3s2)=N1` [2hydroxyethoxyluciferin ether], for which the light emission values is 128249.
